Measurements taken from US20220313702A1, “OXATHIAZIN COMPOUNDS FOR INHIBITING GAPDH” (Geistlich Pharma AG, priority 2019, published 2022).
Where two headings read alike, the source gives them in different places.

What was measured:
[1] = molecular target: recombinant GAPDH (rGAPDH) (Homo sapiens, UniProt P04406); assay: Glyceraldehyde-3-phosphate Dehydrogenase Activity Assay Kit with recombinant GAPDH; format: biochemical
Experimental: FIG. 1: Inhibition of GAPDH enzyme activity: Effect of treatment with GP-2250 (100 uM and 250 uM) on the activity of recombinant GAPDH (rGAPDH) was tested with the Glyceraldehyde-3-phosphate Dehydrogenase Activity Assay Kit (Abcam ab204732) following incubation for up to 60 min at 37° C. The rGAPDH activity is inhibited dose- and time-dependently by 100 uM and 250 uM GP-2250 up to 40% compared to the untreated control. […] The GP-2250 curves are the measured data, not normalized to controls. Data are presented as mean+/−S.D.
The incubation time may be critical as it is a cell-free assay. Specific doses required for a half-maximal or full inhibition of GAPDH are tested in vitro and in vivo in rodents. These in vitro and in vivo data provide a target-related measure of the dose required to inhibit the GAPDH in tissue, e.g., cancer tissue, to various degrees, which is a more direct measure of the impact of the compounds of the present disclosure in contrast to cellular assays such as induction of apoptosis or ROS production.
GAPDH is the rate limiting glycolytic enzyme in cells operating under conditions of aerobic glycolysis, such as tumor cells. Partial inhibition is therefore expected to impair the energy metabolism of tumor cells. This is in contrast to normal cells. […] The GP-2250 curves are the measured data, not normalized to controls. […]

[2] = system: PancTul pancreatic cancer cell line; assay: fluorescent ROS detection assay, PancTul; format: cell-based
Experimental: (§1) FIG. 2: Formation of ROS: The effect of treatment with the indicated concentrations of GP-2250 on the formation of ROS was tested in two pancreatic cancer cell lines a) PancTul and b) BxPC3, using a fluorescent ROS detection assay (ROS/Superoxide Detection Assay Kit, Abcam (ab139476)) following incubation with GP-2250 for 90 min at 37° C. Negative controls (NC+NAC) contained the ROS inhibitor which is part of the Assay Kit plus N-acetylcysteine (NAC; 5 mM). Untreated control (U). Data are presented as mean+/−S.D. Significance levels calculated in comparison to untreated controls (U). * p<0.05, ** p<0.01, *** p<0.001.
(§2) The effects of treatment with various concentrations of GP-2250 on the formation of ROS was tested in two pancreatic cancer cell lines a) PancTul and b) BxPC3 as shown in FIG. 2. […] The BxPC3 cell line was more sensitive to forming ROS than Panc Tul. The rather high concentrations of GP-2250 which are required for the formation of ROS (equal or higher than 500 uM) are most likely due to the short incubation time of 90 minutes in this cellular assay. A higher potency of GP-2250 would be expected at longer incubation times.
(§3) Untreated control (U). Data are presented as mean+/−S.D. Significance levels calculated in comparison to untreated controls (U). * p<0.05, ** p<0.01, *** p<0.001.

[3] = system: BxPC3 pancreatic cancer cell line; assay: fluorescent ROS detection assay, BxPC3; format: cell-based
Experimental: as §1, §2, §3

[4] = system: PancTul cell line; assay: ATP luminescent detection kit, PancTul; format: cell-based
Experimental: (§4) FIG. 3: Decrease of ATP in PancTul cell line: Effect of treatment with the indicated concentrations of GP-2250 on the amount of ATP (dark column) in comparison to the cell viability (light column) after a) 3 h, b) 6 h and c) 24 h incubation at 37° C. The strong decrease of ATP reflects the impairment of the energy metabolism by GP-2250. The decrease of ATP precedes the decrease in cell viability and is therefore not caused by the impairment of cell viability. ATP was measured with a luminescent detection kit (Abcam ab113849), cell viability with the MTT test (Sigma M5655). Data are given as % change versus untreated control (NC), presented as mean+/−S.D. Significance levels in comparison to NC. * p<0.05, ** p<0.01, ***p<0.001.
(§5) The level of ATP in a tumor cell is taken as a measure of the impact of GP-2250 on its energy metabolism. […] The decrease of ATP is already apparent after 3 h with PancTul and at 6 h with the less sensitive BxPC3 at 250 uM. It is this concentration which causes partial inhibition of GAPD (FIG. 1) and thereby links GAPD inhibition to the decrease of ATP, which in itself is a sufficient signal for the induction of apoptosis. […]
(§6) The strong decrease of ATP reflects the impairment of the energy metabolism by GP-2250. […] ATP was measured with a luminescent detection kit (Abcam ab113849), cell viability with the MTT test (Sigma M5655). […]

[5] = system: BxPC3 cell line; assay: ATP luminescent detection kit, BxPC3; format: cell-based
Experimental: as §4, with “4:” for “3:”, “BxPC3” for “PancTul”
as §5, §6

[6] = system: PancTul cell line; assay: cell viability MTT test, PancTul; format: cell-based
Experimental: as §4
as §4, with “The” for “FIG. 3: Decrease of ATP in PancTul cell line: Effect of treatment with the indicated concentrations of GP-2250 on the amount of ATP (dark column) in comparison to the cell viability (light column) after a) 3 h, b) 6 h and c) 24 h incubation at 37° C. The”

[7] = system: BxPC3 cell line; assay: cell viability MTT test, BxPC3; format: cell-based
Experimental: as §4, with “4:” for “3:”, “BxPC3” for “PancTul”
as §4, with “The” for “FIG. 3: Decrease of ATP in PancTul cell line: Effect of treatment with the indicated concentrations of GP-2250 on the amount of ATP (dark column) in comparison to the cell viability (light column) after a) 3 h, b) 6 h and c) 24 h incubation at 37° C. The”

[8] = system: Bax; assay: Western blot of Bax expression in PancTul cells; format: cell-based; settings: 200 μM, 0 h, 6 h, 12 h and 24 h, α-tubulin as control
Experimental: (§7) FIG. 5: Regulation of oncoproteins Bax and Bcl-2 expression: Effect of treatment with 200 μM GP-2250 for 0 h, 6 h, 12 h and 24 h on the expression of the oncoproteins a) Bax and b) Bcl-2 was tested in PancTul cells by Western blots with α-tubulin as control. The expression of the pro-apoptotic protein Bax was increased whereas the expression of the anti-apoptotic Bcl-2 was decreased over time of incubation with GP-2250.
(§8) Apoptotic pathways are triggered by a decrease of ATP or an increase of ROS. They result in a shift of the equilibrium between the pro-apoptotic (death) protein Bax and the anti-apoptotic (survival) protein Bcl-2. The mitochondria are destabilized and the apoptotic caspase cascade finalizes the apoptotic cell suicide. GP-2250 (200 μM) increased the expression of Bax and decrease the expression of BCl-2 with increasing incubation times as shown in the Western blots (FIG. 5). […] In addition, the concentration of GP-2250 which is sufficient to change the Bax/Bcl-2 ratio (200 uM) corresponds to that for partial GAPDH inhibition (250 uM) (FIG. 1). This finding links GAPDH inhibition to the induction of apoptosis.
(§9) The expression of the pro-apoptotic protein Bax was increased whereas the expression of the anti-apoptotic Bcl-2 was decreased over time of incubation with GP-2250.

[9] = system: Bcl-2; assay: Western blot of Bcl-2 expression in PancTul cells; format: cell-based; settings: 200 μM, 0 h, 6 h, 12 h and 24 h, α-tubulin as control
Experimental: as §7, §8, §9

[10] = system: primary cell line derived from human pancreatic cancer (Bo80); assay: cell viability MTT assay, Bo80 primary pancreatic cancer cells; format: cell-based; settings: 24 h at 37° C.
Experimental: FIG. 6: Synergy between GP-2250 and Gemcitabine: Cell viability was tested in a primary cell line derived from human pancreatic cancer (Bo80). […] When combined, a striking synergy was observed. The number of viable cells was reduced by 70-75%. Cell viability was tested colorimetically using the MTT assay. […] Reduction of chemotherapy drug-related toxicity can be achieved in vitro using the combinations with GP-2250 while maintaining high efficacy. The combination of GP-2250 with gemcitabine was therefore tested in mouse models of patient-derived xenografts to assess the therapeutic potential of this drug combination in vivo (see FIGS. 12-15; FIG. 18). […] When combined, a striking synergy was observed. The number of viable cells was reduced by 70-75%. Cell viability was tested colorimetically using the MTT assay.

[11] = system: PancTul pancreatic cancer cell line; assay: test of secondary resistance, PancTul; format: cell-based; settings: 6 weekly treatment cycles, BrdU assay
Text: FIG. 9: Test of secondary resistance.
Gemcitabine was used as comparator drug.

[12] = system: Chemotherapy-resistant stem cells from advanced Stage 3 and 4 pancreatic cancer human patients; assay: chemotherapy-resistant stem cells from pancreatic cancer patients; format: cell-based; settings: several concentrations
[13] = system: AsPC-1 pancreatic cancer cell line
Experimental: (§10) Following 4 weekly cycles of cytotoxic treatment and regrowth (see text), the cytotoxic potency of GP-2250 (FIG. 8A) and of gemcitabine (FIG. 8B) was tested with the BrdU and MTT assay respectively in the AsPC-1 pancreatic cancer cell line (light columns). Controls corresponded to cells cultured for 4 weeks without drug treatment (dark columns).
(§11) Secondary resistance to 2250 was tested to imitate the repetitive bolus administration of the drug over a period of up to 8 weeks. Gemcitabine was used as comparator drug. A potential secondary resistance was expected to manifest itself in a decreased ability of either drug to impair cell viability. The study was performed with 3 pancreatic tumor cell lines, AsPC-1, PancTul and Bo80, the latter being a primary cell line derived from a pancreatic cancer patient. The cells were treated once a week for 24 hours with 2250 or gemcitabine at a dose which destroyed 80-90% of the cells. Subsequently, the media were exchanged and the cells were allowed to regrow in the absence of drug for 6 days.
(§12) This weekly treatment cycle of cell killing and regrowth was repeated for both drugs for 4 weeks, 6 weeks and 8 weeks. Untreated cultures of 4, 6 and 8 weeks were used as controls. Cell viability was tested with the BrdU assay or the MTT assay at 2 hour, 24 hour, and 6 days in every treatment cycle for 4, 6 and 8 weeks.

[14] = system: Bo80 pancreatic primary cancer cell line
Experimental: (§13) Controls corresponded to cells cultured for 8 weeks without drug treatment (dark columns).
as §11, §12

[15] = system: neuroendocrine cell line QGP-1
Experimental: (§14) Neuroendocrine tumors were tested in vitro using the neuroendocrine cell line QGP-1 and in vivo using mouse models with a QGP-1 cell xenograft and a Bo99 patient-derived pancreatic cancer tissue graft.

[16] = system: Bo80 pancreatic primary cancer cell line; assay: test of secondary resistance, Bo80; settings: Bo80, 8 weekly treatment cycles, BrdU assay, vs untreated 8-week cultures
Experimental: as §13, §11, §12

[17] = system: neuroendocrine cell line QGP-1; assay: QGP-1 tumor cell viability in vitro
Experimental: as §14

[18] = system: AsPC-1 pancreatic cancer cell line; assay: test of secondary resistance, AsPC-1; settings: AsPC-1, 4 weekly treatment cycles, MTT assay, vs untreated 4-week cultures
Experimental: as §10, §11, §12

[19] = molecular target: GAPDH (Homo sapiens, UniProt P04406); assay: interactions with GAPDH (covalent labeling); format: biochemical
Experimental: Various oxathiazine-like compounds of the present disclosure are synthesized and are assayed for interactions with GAPDH. Isethionic acid amide and methylene glycol were identified as hydrolytic products. A reactive transient reactive intermediate is isethionic acid hydroxymethylamide. […] The covalently labeled enzyme is purified and reactive intermediates are identified using various analytical methods including mass spectrometry of the labeled peptide is elucidated.

Chain of recombinant GAPDH (rGAPDH) (P04406 whole entry): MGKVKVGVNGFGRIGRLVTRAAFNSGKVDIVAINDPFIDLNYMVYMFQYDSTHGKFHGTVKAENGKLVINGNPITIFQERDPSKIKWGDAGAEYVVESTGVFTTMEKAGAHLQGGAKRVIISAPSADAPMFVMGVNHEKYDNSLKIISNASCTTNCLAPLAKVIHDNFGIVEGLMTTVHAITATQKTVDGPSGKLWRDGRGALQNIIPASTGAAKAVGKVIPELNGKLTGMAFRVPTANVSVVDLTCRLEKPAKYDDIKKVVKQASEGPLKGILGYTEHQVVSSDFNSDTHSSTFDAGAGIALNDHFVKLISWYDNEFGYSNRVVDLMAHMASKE
Chain of GAPDH (P04406 whole entry): as above

With `O=S1(=O)CCOCN1` [GP-2250, Tetrahydro1,4,5-oxathiazin-4-dioxide] the “inhibition of rGAPDH activity” value ([1]; 100 uM and 250 uM GP-2250, incubation up to 60 min at 37° C., compared to untreated control, dose- and time-dependent) was “up to 40%”, the “inhibition of recombinant GAPDH” value ([1]; cell-free assay) was “directly inhibited” and the “increase of ROS” value ([2]; 90 min at 37° C.) was “concentration dependent”. The “concentrations required for the formation of ROS” value ([2]; incubation time of 90 minutes) was at least 500 µM, the “increase of ROS” value ([3]; BxPC3, 90 min at 37° C.) was “concentration dependent” and the “concentrations required for the formation of ROS” value ([3]; BxPC3, incubation time of 90 minutes) was at least 500 µM. For the same compound, the “incubation time at which decrease of ATP is apparent” value ([4]; 250 uM) was 3 h, the ATP amount ([4]; 3 h, 6 h, 24 h at 37° C.) was “decreases depending on the concentration of GP-2250 and the incubation time” and the “incubation time at which decrease of ATP is apparent” value ([5]; BxPC3, 250 uM) was 6 h. For the same compound, the ATP amount ([5]; BxPC3, 3 h, 6 h, 24 h at 37° C.) was “decreases depending on the concentration of GP-2250 and the incubation time”, the “impairment of cell viability (MTT) relative to ATP decrease” value [6] was “required higher concentrations than those required to decrease ATP” and the “impairment of cell viability (MTT) relative to ATP decrease” value [7] was “required higher concentrations than those required to decrease ATP”. For the same compound, the “expression of Bax” value [8] was “increased”, the “expression of Bcl-2” value [9] was “decreased” and the “cell viability, drug alone” value ([10]; GP-2250 200 uM) was “inactive per se”. For the same compound, the “cytotoxic potency after repeated treatment (secondary resistance)” value (from here on “cytotoxic potency”) [11] was “remained unchanged”, the “effect on chemotherapy-resistant stem cells” value [12] was “some effect at higher concentrations” and the “cytotoxic potency” value [13] was “remained unchanged”. The “cytotoxic potency” value [14] was “remained unchanged” and the “cytotoxic effect in QGP-1 cells, monotherapy” value [15] was “concentration-dependent cytotoxic effect”.
With `Nc1ccn([C@@H]2O[C@H](CO)[C@@H](O)C2(F)F)c(=O)n1` [gemcitabine] the “cell viability, drug alone” value ([10]; Gemcitabine 100 uM or 1000 uM) was “inactive per se”, the “effect on chemotherapy-resistant stem cells” value [12] was “minimal effect at all tested concentrations” and the “cytotoxic potency” value [16] was “reduced cytotoxic potency”. The “cytotoxic effect in QGP-1 cells, monotherapy” value [17] was “concentration-dependent cytotoxic effect” and the “cytotoxic potency” value [18] was “reduced cytotoxic potency”.
In the case of `O=S(=O)(CCO)NCO` [isethionic acid hydroxymethylamide], the “interaction with the reactive cysteine-SH in the active center of GAPDH” value [19] is reported as “inactivates the enzyme”.
